Several values for one entry are separate records, joined by “and”; a condition that tells them apart may be missing. Equal values may be shown once.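 Following 48 hours of exposure in 96-well plates, responses at five concentrations were used to interpolate endpoints linearly. GI50: concentration for 50% inhibition of growth. TGI marks complete inhibition of growth.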 Where a SMILES comes first, the peptide text is derived from it. Peptide text beside a SMILES is read from it. The star is where a group is joined. * marks the point of attachment. Palmitoyl = CCCCCCCCCCCCCCCC(=O)*; Boc = CC(C)(C)OC(=O)*
Columns and labels:
Assay in all cases: NCI tumour cell line growth inhibition, 48 h
HOP-62 NSCLC = system: HOP-62 NSCLC
SK-OV-3 ovarian = system: SK-OV-3 ovarian
CAKI-1 renal = system: CAKI-1 renal
RPMI-8226 leukemia = system: RPMI-8226 leukemia
OVCAR-4 ovarian = system: OVCAR-4 ovarian
OVCAR-3 ovarian = system: OVCAR-3 ovarian
CCRF-CEM leukemia = system: CCRF-CEM leukemia
SK-MEL-5 melanoma = system: SK-MEL-5 melanoma
PC-3 prostate = system: PC-3 prostate
ACHN renal = system: ACHN renal

| SMILES | GI50 (HOP-62 NSCLC) | TGI (HOP-62 NSCLC) | GI50 (SK-OV-3 ovarian) | TGI (SK-OV-3 ovarian) | GI50 (CAKI-1 renal) | TGI (CAKI-1 renal) | GI50 (RPMI-8226 leukemia) | TGI (RPMI-8226 leukemia) | GI50 (OVCAR-4 ovarian) | TGI (OVCAR-4 ovarian) | GI50 (OVCAR-3 ovarian) | TGI (OVCAR-3 ovarian) | GI50 (CCRF-CEM leukemia) | TGI (CCRF-CEM leukemia) | GI50 (SK-MEL-5 melanoma) | TGI (SK-MEL-5 melanoma) | TGI (PC-3 prostate) [µM] | TGI (ACHN renal) [µM] | GI50 (ACHN renal) [nM] |
| --- | --- | --- | --- | --- | --- | --- | --- | --- | --- | --- | --- | --- | --- | --- | --- | --- | --- | --- | --- |
| CC(=O)c1c(O)c(C)c(O)c2c1OC1=CC(=O)C(C(C)=O)C(=O)C12C (centres undefined) | 3.66 µM and 20.1 µM | 12.2 µM and 46.1 µM | 9.68 µM and 26.5 µM | 56.1 µM and 80.6 µM | 29.5 µM and 10.5 µM | 79.8 µM and 26.8 µM | 3.88 µM and 9.02 µM | 24.2 µM and 49.7 µM | 5.28 µM and 9.79 µM | 61.3 µM and 35.1 µM | 1.05 µM and 5.74 µM | 3.72 µM and 15.5 µM | 4.26 µM and 20.7 µM | 26.2 µM and 72.6 µM | 3.56 µM and 16.5 µM | 9.29 µM and 33.8 µM |  |  |  |
| c1csc(-c2ccc(-c3ccc(-c4cccs4)s3)s2)c1 |  | > 100 µM |  | > 100 µM |  | > 100 µM |  | > 100 µM |  | > 100 µM |  | > 100 µM |  |  |  | > 100 µM | > 100 | > 100 |  |
| Fc1nc(F)nc(-c2c3ccccc3c3n2CCS3)n1 |  | > 100 µM |  | > 100 µM |  | > 100 µM |  | > 100 µM |  | > 100 µM |  | > 100 µM |  | > 100 µM |  | > 100 µM |  | > 100 |  |
| COc1ccc(CC2C(=O)NC(C)C(=O)N(C)C3Cc4ccc(cc4)Oc4cc(ccc4O)CC(C(=O)NC(C)C(=O)NC(C)C(=O)N2C)N(C)C3=O)cc1 (centres undefined) | 0.00218 µM |  |  |  | 0.497 µM and 0.647 µM and 0.0727 µM |  | < 0.0001 µM | 0.0327 µM and 0.0179 µM | < 0.0001 µM | 0.523 µM and 0.131 µM and 0.088 µM | 0.000244 µM | 0.0438 µM | < 0.0001 µM | 0.122 µM | 0.00102 µM | 0.0532 µM and 0.127 µM and 0.0679 µM | 0.000246 | 45 | 450 |
| C=C(CCC(C(=O)O)C1CCC2(C)C3=C(CCC12C)C1(C)CCC(O)C(C)(C)C1CC3)C(C)C (centres undefined) |  | > 100 µM |  | > 100 µM |  | > 100 µM |  | 79.7 µM |  | > 100 µM |  | > 100 µM |  |  |  | > 100 µM | > 100 | > 100 |  |
| COc1ccc(NC(=O)C2=C(SC)C(=O)N=C2N)cc1 |  | > 100 µM |  | > 100 µM |  | > 100 µM |  | > 100 µM |  | > 100 µM |  |  |  | > 100 µM |  | > 100 µM | > 100 | > 100 |  |
| O=C(O)CCCc1nc2c(n1-c1ccccc1)C(=O)c1ccccc1C2=O |  |  |  | > 100 µM |  | > 100 µM |  | > 100 µM |  | 76.2 µM |  | 82.7 µM |  | > 100 µM |  |  |  | > 100 |  |
| O=C(CCN1CCCCC1CO)Nc1ccc2c(c1)C(=O)c1ccc(NC(=O)CCN3CCCCC3CO)cc1C2=O (centres undefined) |  | 64.2 µM |  | 46.2 µM |  | 57.6 µM |  | 48 µM |  | 27.1 µM |  |  |  | 30.5 µM |  | 29 µM |  | 32 |  |
| COc1cccc(N2N=C3c4ccccc4-n4c(nc5ccccc54)C3C2N)c1 (centres undefined) |  | > 100 µM |  |  |  | > 100 µM |  | > 100 µM |  | > 100 µM |  | > 100 µM |  |  |  | > 100 µM | > 100 | > 100 |  |
| C/C(=N\O)c1ccc(Nc2c3ccccc3nc3occc23)cc1 |  | > 24.1 µM |  | 5.92 µM |  |  |  | 3.26 µM |  | > 12.2 µM |  | > 50 µM |  | 1.89 µM |  | 6.77 µM | > 50 | > 50 |  |
| CCCCCCCCCCCCCCCC(=O)NC(CCCCN)C(=O)NCC(=O)NC(Cc1ccccc1)C(=O)N1CCCC1C(=O)NC(CO)C(=O)NC(Cc1ccc(O)cc1)C(=O)NC(CCCCN)C(=O)NC(CC(C)C)C(=O)NC(CCCN=C(N)N)C(=O)N1CCCC1C(=O)NCC(N)=O (centres undefined) (Palmitoyl-KGFPSYKLRPG-NH2; configuration not given here) | 24.4 µM | 53.6 µM | 23 µM | 44.7 µM | 16.4 µM | 42.8 µM | 13.1 µM | 32.5 µM | 30.5 µM | 78.7 µM | 28.6 µM | 76.5 µM | 20.5 µM | 40.2 µM | 27.7 µM | > 100 µM |  |  |  |
| COc1cc2c(cc1OC)C1Cc3ccccc3CN1CCC2 (centres undefined) |  | > 100 µM |  | > 100 µM |  | > 100 µM |  |  |  | > 100 µM |  | > 100 µM |  | > 100 µM |  | > 100 µM | > 100 | > 100 |  |
| O=C(CCCN1CCc2[nH]c3cc(F)ccc3c2C1)c1ccc(F)cc1 |  | 29.8 µM |  |  |  | > 100 µM |  | 27.2 µM |  | 26.9 µM |  | 28.1 µM |  | 30.9 µM |  | 30.8 µM | 25.7 | 26.8 |  |
| CC(=O)Nc1ncc2c(n1)-c1ccccc1OC2 |  |  |  | > 100 µM |  | > 100 µM |  | > 100 µM |  | > 100 µM |  | > 100 µM |  | > 100 µM |  | > 100 µM | > 100 | > 100 |  |
| Cc1ccc(S(=O)(=O)NC(=O)NS(=O)(=O)O)cc1 |  | > 100 µM |  | > 100 µM |  |  |  | > 100 µM |  | > 100 µM |  |  |  | > 100 µM |  | > 100 µM | > 100 | > 100 |  |
| C=C1C(=O)O[C@H]2C(=O)[C@H](C)CCC[C@@](C)(O)/C=C\C[C@@]3(C)O[C@@H]3C[C@@H]12 |  |  |  | > 100 µM |  | 27 µM |  | 33.7 µM |  |  |  | 24.3 µM |  | 12.3 µM |  | 29 µM | 38.6 | 20.5 |  |
| CSc1nc2c(ncn2C2OCC(O)C(O)C2O)c(=O)[nH]1 (centres undefined) |  | > 100 µM |  | > 100 µM |  |  |  | > 100 µM |  | > 100 µM |  | > 100 µM |  | > 100 µM |  | > 100 µM |  |  |  |
| C[C@@H](C[C@@H](O)[C@H](O)C(C)(C)O)[C@H]1CC=C2[C@]3(C)[C@H](O)C[C@H]4C(C)(C)[C@H](O)CC[C@]4(C)[C@H]3CC[C@@]21C |  | 28.5 µM |  |  |  | 30 µM |  | 48.2 µM |  | 27.5 µM |  | 26.2 µM |  | 40.8 µM |  | 28.1 µM | 28 | 27.4 |  |
| CSCCC(NC(=O)C(CC(C)C)NC(=O)CNC(=O)OC(C)(C)C)C(=O)N(C)C (stereo not drawn) (Boc-Gly-Leu-Met-NMe2; configuration not given here) |  |  |  | > 100 µM |  | > 100 µM |  |  |  | > 100 µM |  |  |  | > 100 µM |  | > 100 µM | > 100 | > 100 |  |
| NC(CO)c1ccccc1 (centres undefined) |  | > 100 µM |  | > 100 µM |  | > 100 µM |  |  |  | > 100 µM |  | > 100 µM |  | > 100 µM |  | > 100 µM |  | > 100 |  |

— PubChem BioAssay (NCI)
